In patent publication US20240376097A1, “BCL-2 Inhibitor” (BeiGene Ltd., priority 2020, published 2024):
Like-named read-outs stand apart in the source and are kept apart here.

Assays:
[1] = molecular target: recombinant human Bcl-2 D103Y protein (Homo sapiens (Human), UniProt P10415, D103Y); assay: Bcl-2-D103Y Biochemical Assay (TR-FRET); type: binding; details: for IC50: TR-FRET, FITC labeled Bak peptide; for Ratio of Bcl-2 D103Y/Bcl-2 WT: ratio of IC50
Method in brief: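 Recombinant human Bcl-2 D103Y binding to its ligand measured by TR-FRET (ex 337 nm, em 490/520 nm) with increasing compound concentrations. Percent inhibition from the 490/520 nm ratio; IC50 from four-parameter logistic fit.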

[2] = tested on: recombinant human Bcl-2-G101V protein; assay: Bcl-2-G101V TR-FRET Assay; type: binding; details: ratio of biochemical IC50 Bcl-2 G101V / Bcl-2 WT
Method in brief: (§1)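 Compounds were titrated at increasing concentrations against the Bcl-2-G101V–ligand interaction. TR-FRET signals were then read (ex 337 nm; em 490/520 nm). Percent inhibition was derived from the 490-to-520 nm ratio, and IC50 from a four-parameter logistic equation.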

[3] = molecular target: recombinant human Bcl-2-G101V protein (Homo sapiens (Human), UniProt P10415, G101V); assay: Bcl-2-G101V TR-FRET Assay; type: binding; details: Bcl-2 G101V mutant, TR-FRET; read-out: Biochemical assay (IC50, nM) Bcl-2 G101V
Method in brief: as §1

[4] = tested on: BCL-2 G101V knock-in cell line H96 (derive from RS4;11); assay: Bcl 2-G101V Knock-In RS4;11 Cell Proliferation Assay; type: cell-based; details: Homo sapiens, RS4;11 Bcl-2 G101V knock-in clone H96, 48 hrs, CellTiter-GLO, read-out: Cellular proliferation assay (IC50, nM) RS4
Method in brief: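 H96, a CRISPR-generated RS4;11 clone carrying BCL2-G101V knock-in (WES/RNA-seq validated), seeded 50,000 per well and exposed 48 h at 37 °C to 10-point dilutions topping at 1 or 10 μM. Viability by CellTiter-Glo luminescence; mean IC50.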

[5] = tested on: RS4;11 (BCL-2 dependent acute lymphoblastic leukemia cell line); assay: RS4;11 Cell Proliferation Assay; type: cell-based; details: Homo sapiens, RS4-11, RS4;11 cells, read-out: Cellular proliferation assay (IC50, nM) RS4
Method in brief: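 RS4;11 cells, 50,000 per well in RPMI-1640 with 10% FBS, treated 48 h at 37 °C with a 10-point dilution series topping at 1 μM. Viability read by CellTiter-Glo ATP luminescence; mean IC50 reported.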

[6] = molecular target: Recombinant human Bcl-2 protein (Homo sapiens (Human), UniProt P10415); assay: Bcl-2 TR-FRET Assay; type: binding
Method in brief: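 Compounds were pre-incubated with 0.05 nM recombinant Bcl-2 for 0.5 h at room temperature in potassium phosphate buffer, pH 7.5. FITC-Bak peptide (0.5 nM) and Tb-cryptate antibody were then added for 1 h. Percent inhibition from TR-FRET signals gave IC50 values.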

[7] = Bcl-2 wild type, TR-FRET, read-out: Biochemical assay (IC50, nM) Bcl-2 WT
[8] = wild type Bcl-2, unit inferred, read-out: Bcl-2 WT

Row | SMILES | IC50 [1] | Ratio of Bcl-2 D103Y/Bcl-2 WT [1] | Ratio of Bcl-2 G101V/WT [2] | IC50 [3] | IC50 [4] | IC50 [5] | IC50 [6, 7] | IC50 [6, 8]
1 | [2H]C([2H])([2H])Oc1cc(CN2CCN(C3CC4(C3)CN(c3ccc(C(=O)NS(=O)(=O)c5ccc(NC[C@H]6CC[C@](C)(O)CC6)c([N+](=O)[O-])c5)c(Oc5cnc6[nH]cc(F)c6c5)c3)C4)[C@H](c3ccccc3C(C)C)C2)cc2c1OCC2(C)C [Example 326, 2-((3-fluoro-1H-pyrrolo[2,3-b]pyridin-5-yl)oxy)-N-((4-((((1r,4r)-4-hydroxy-4-methylcyclohexyl)methyl)amino)-3-nitrophenyl)sulfonyl)-4-(6-((R)-2-(2-isopropylphenyl)-4-((7-(methoxy-d3)-3,3-dimethyl-2,3-dihydrobenzofuran-5-yl)methyl)piperazin-1-yl)-2-azaspiro[3.3]heptan-2-yl)benzamide] | 0.25 nM | 1.5 | 3 | 0.49 nM | 0.34 nM | 0.19 nM | 0.17 nM | 0.17 nM
2 | COc1cc(CN2CCN(C3CC4(C3)CN(c3ccc(C(=O)NS(=O)(=O)c5ccc(NC[C@H]6CC[C@](C)(O)CC6)c([N+](=O)[O-])c5)c(Oc5cnc6[nH]cc(F)c6c5)c3)C4)[C@H](c3ccccc3C(C)C)C2)cc2c1OC(C)(C)CC2 [Example 337, 2-((3-fluoro-1H-pyrrolo[2,3-b]pyridin-5-yl)oxy)-N-((4-((((1r,4r)-4-hydroxy-4-methylcyclohexyl)methyl)amino)-3-nitrophenyl)sulfonyl)-4-(6-((R)-2-(2-isopropylphenyl)-4-((8-methoxy-2,2-dimethylchroman-6-yl)methyl)piperazin-1-yl)-2-azaspiro[3.3]heptan-2-yl)benzamide] | 0.39 nM | 3.2 | 3 | 0.37 nM | 0.63 nM | 0.18 nM | 0.12 nM | 0.12 nM
3 | COc1cc(CN2CCN(C3CC4(C3)CN(c3ccc(C(=O)NS(=O)(=O)c5ccc(NC[C@H]6CC[C@](C)(O)CC6)c([N+](=O)[O-])c5)c(Oc5cnc6[nH]ccc6c5)c3)C4)[C@H](c3ccccc3C(C)C)C2)cc2cc(C)oc12 [Example 339, 2-((1H-pyrrolo[2,3-b]pyridin-5-yl)oxy)-N-((4-((((1r,4r)-4-hydroxy-4-methylcyclohexyl)methyl)amino)-3-nitrophenyl)sulfonyl)-4-(6-((R)-2-(2-isopropylphenyl)-4-((7-methoxy-2-methylbenzofuran-5-yl)methyl)piperazin-1-yl)-2-azaspiro[3.3]heptan-2-yl) benzamide] | 0.71 nM | 2.5 | 3.5 | 0.97 nM | 0.52 nM | 0.19 nM | 0.28 nM | 0.28 nM
4 | COc1cc(CN2CCN(C3CC4(C3)CN(c3ccc(C(=O)NS(=O)(=O)c5ccc(NC[C@H]6CC[C@](C)(O)CC6)c([N+](=O)[O-])c5)c(Oc5cnc6[nH]ccc6c5)c3)C4)[C@H](c3ccccc3C(C)C)C2)ccc1OC1CC1 [Example 343, 2-((1H-pyrrolo[2,3-b]pyridin-5-yl)oxy)-4-(6-((R)-4-(4-cyclopropoxy-3-methoxybenzyl)-2-(2-isopropylphenyl)piperazin-1-yl)-2-azaspiro[3.3]heptan-2-yl)-N-((4-((((1r,4r)-4-hydroxy-4-methylcyclohexyl)methyl)amino)-3-nitrophenyl)sulfonyl)benzamide] | 0.09 nM | 0.8 | 2.7 | 0.3 nM | 0.25 nM | 0.11 nM | 0.11 nM | 0.11 nM
5 | COc1cc(CN2CCN(C3CC4(C3)CN(c3ccc(C(=O)NS(=O)(=O)c5ccc(NC[C@H]6CC[C@](C)(O)CC6)c([N+](=O)[O-])c5)c(Oc5cnc6[nH]cc(F)c6c5)c3)C4)[C@H](c3ccccc3C(C)C)C2)ccc1C1COC1 [Example 345, 2-((3-fluoro-1H-pyrrolo[2,3-b]pyridin-5-yl)oxy)-N-((4-((((1r,4r)-4-hydroxy-4-methylcyclohexyl)methyl)amino)-3-nitrophenyl)sulfonyl)-4-(6-((R)-2-(2-isopropylphenyl)-4-(3-methoxy-4-(oxetan-3-yl)benzyl)piperazin-1-yl)-2-azaspiro[3.3]heptan-2-yl) benzamide] | 0.13 nM | 0.8 | 2.4 | 0.38 nM | 0.24 nM | 0.14 nM | 0.16 nM | 0.16 nM
6 | COc1cc(CN2CCN(C3CC4(C3)CN(c3ccc(C(=O)NS(=O)(=O)c5ccc(NC[C@H]6CC[C@](C)(O)CC6)c([N+](=O)[O-])c5)c(Oc5cnc6[nH]cc(F)c6c5)c3)C4)[C@H](c3ccccc3C(C)C)C2)cc2c1OCCCC2 [Example 347, 2-((3-fluoro-1H-pyrrolo[2,3-b]pyridin-5-yl)oxy)-N-((4-((((1r,4r)-4-hydroxy-4-methylcyclohexyl)methyl)amino)-3-nitrophenyl)sulfonyl)-4-(6-((R)-2-(2-isopropylphenyl)-4-((9-methoxy-2,3,4,5-tetrahydrobenzo[b]oxepin-7-yl)methyl)piperazin-1-yl)-2-azaspiro[3.3]heptan-2-yl) benzamide] | 0.28 nM | 1.4 | 2.3 | 0.47 nM | 0.34 nM | 0.13 nM | 0.2 nM | 0.2 nM
7 | COc1cc(CN2CCN(C3CC4(C3)CN(c3ccc(C(=O)NS(=O)(=O)c5ccc(NC[C@H]6CC[C@](C)(O)CC6)c([N+](=O)[O-])c5)c(Oc5cnc6[nH]cc(F)c6c5)c3)C4)[C@H](c3ccccc3C(C)C)C2)ccc1OC(C)C [Example 349, 2-((3-fluoro-1H-pyrrolo[2,3-b]pyridin-5-yl)oxy)-N-((4-((((1r,4r)-4-hydroxy-4-methylcyclohexyl)methyl)amino)-3-nitrophenyl)sulfonyl)-4-(6-((R)-4-(4-isopropoxy-3-methoxybenzyl)-2-(2-isopropylphenyl)piperazin-1-yl)-2-azaspiro[3.3]heptan-2-yl) benzamide] | 0.17 nM | 0.9 | 2.2 | 0.43 nM | 0.44 nM | 0.16 nM | 0.2 nM | 0.2 nM
8 | COc1cc(CN2CCN(C3CC4(C3)CN(c3ccc(C(=O)NS(=O)(=O)c5ccc(NC[C@H]6CC[C@](C)(O)CC6)c([N+](=O)[O-])c5)c(Oc5cnc6[nH]cc(F)c6c5)c3)C4)[C@H](c3ccccc3C(C)C)C2)ccc1OC1CCC1 [Example 350, 4-(6-((R)-4-(4-cyclobutoxy-3-methoxybenzyl)-2-(2-isopropylphenyl)piperazin-1-yl)-2-azaspiro[3.3]heptan-2-yl)-2-((3-fluoro-1H-pyrrolo[2,3-b]pyridin-5-yl)oxy)-N-((4-((((1r,4r)-4-hydroxy-4-methylcyclohexyl)methyl)amino)-3-nitrophenyl)sulfonyl) benzamide] | 0.65 nM | 1.4 | 2.2 | 0.99 nM | 0.79 nM | 0.23 nM | 0.48 nM | 0.48 nM
